Data: ChEMBL document CHEMBL1201862, “PubChem BioAssay data set” (2004)
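Exposure lasted 48 hours, with cells grown in 96-well plates and compounds tested at five concentrations. GI50 is the concentration that inhibits growth by half.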 Active and inactive are the calls of the source. Rule as the data show it: active = GI50 up to about 1.1 µM and inactive = higher.

Key:
Test in all cases: growth of human tumour cells (NCI), 48 h
[1] = test system: 786-0
[2] = test system: A498
[3] = test system: A549
[4] = test system: ACHN
[5] = test system: CAKI-1
[6] = test system: CCRF-CEM
[7] = test system: COLO 205
[8] = test system: DLD-1
[9] = test system: DMS-114
[10] = test system: DMS-273
[11] = test system: EKVX
[12] = test system: HCC 2998
[13] = test system: HCT-116
[14] = test system: HCT-15
[15] = test system: HL-60
[16] = test system: HOP-18
[17] = test system: HOP-62
[18] = test system: HOP-92
[19] = test system: IGROV-1
[20] = test system: K562
[21] = test system: KM-20L2
[22] = test system: KM12
[23] = test system: LOX IMVI
[24] = test system: LXFL 529
[25] = test system: M14
[26] = test system: M19-MEL
[27] = test system: MOLT-4
[28] = test system: Malme-3M
[29] = test system: NCI-H226
[30] = test system: NCI-H23
[31] = test system: NCI-H460
[32] = test system: NCI-H522
[33] = test system: OVCAR-3
[34] = test system: OVCAR-4
[35] = test system: OVCAR-5
[36] = test system: OVCAR-8
[37] = test system: RXF 393
[38] = test system: SF-268
[39] = test system: SF-295
[40] = test system: SF-539
[41] = test system: SK-MEL-28
[42] = test system: SK-MEL-2
[43] = test system: SK-MEL-5
[44] = test system: SK-OV-3
[45] = test system: SN12C
[46] = test system: SNB-19
[47] = test system: SNB-75
[48] = test system: SNB-78
[49] = test system: SR
[50] = test system: SW-620
[51] = test system: TK-10
[52] = test system: U-251
[53] = test system: UACC-257
[54] = test system: UACC-62
[55] = test system: UO-31
[56] = test system: XF498
[57] = test system: HT-29
[58] = test system: RPMI-8226
[59] = test system: RXF 631

## Cc1c2c(cc3c(=O)ccn(CCN(C)C)c13)c(=O)ccn2CCN(C)C
[1]
  GI50: 4.13 µM (inactive)
[2]
  GI50: 21.4 µM (inactive)
[3]
  GI50: 13.7 µM (inactive)
[4]
  GI50: 5.4 µM (inactive)
[5]
  GI50: 16.6 µM (inactive)
[6]
  GI50: 5.87 µM (inactive)
[7]
  GI50: 11.5 µM (inactive)
[8]
  GI50: 6.84 µM (inactive)
[9]
  GI50: 16.3 µM (inactive)
[10]
  GI50: 4.18 µM (inactive)
[11]
  GI50: 13 µM (inactive)
[12]
  GI50: 6.19 µM (inactive)
[13]
  GI50: 6.35 µM (inactive)
[14]
  GI50: 4.5 µM
[15]
  GI50: 2.24 µM (inactive)
[16]
  GI50: 15.7 µM (inactive)
[17]
  GI50: 6.62 µM (inactive)
[18]
  GI50: 6.1 µM (inactive)
[19]
  GI50: 12.4 µM (inactive)
[20]
  GI50: 17.8 µM (inactive)
[21]
  GI50: 5.04 µM (inactive)
[22]
  GI50: 3.08 µM (inactive)
[23]
  GI50: 10.3 µM (inactive)
[24]
  GI50: 4.46 µM (inactive)
[25]
  GI50: 12.5 µM (inactive)
[26]
  GI50: 16.4 µM (inactive)
[27]
  GI50: 3.96 µM (inactive)
[28]
  GI50: 27.4 µM (inactive)
[29]
  GI50: 14 µM (inactive)
[30]
  GI50: 14.9 µM (inactive)
[31]
  GI50: 3.69 µM (inactive)
[32]
  GI50: 2.31 µM (inactive)
[33]
  GI50: 14.2 µM (inactive)
[34]
  GI50: 4.4 µM (inactive)
[35]
  GI50: 13.5 µM (inactive)
[36]
  GI50: 4.76 µM (inactive)
[37]
  GI50: 14.2 µM (inactive)
[38]
  GI50: 6.93 µM (inactive)
[39]
  GI50: 7.31 µM (inactive)
[40]
  GI50: 15 µM (inactive)
[41]
  GI50: 20.4 µM (inactive)
[42]
  GI50: 21 µM (inactive)
[43]
  GI50: 20 µM (inactive)
[44]
  GI50: 8.61 µM (inactive)
[45]
  GI50: 11.2 µM (inactive)
[46]
  GI50: 8.34 µM (inactive)
[47]
  GI50: 11.9 µM (inactive)
[48]
  GI50: 47.1 µM (inactive)
[49]
  GI50: 10.6 µM (inactive)
[50]
  GI50: 3.81 µM (inactive)
[51]
  GI50: 11.7 µM (inactive)
[52]
  GI50: 8.34 µM (inactive)
[53]
  GI50: 18.3 µM (inactive)
[54]
  GI50: 17.2 µM (inactive)
[55]
  GI50: 10.3 µM (inactive)
[56]
  GI50: 10.4 µM (inactive)

## CC1CC2C3CCC4=CC(=O)C=CC4(C)C3(F)C(O)CC2(C)C1(O)C(=O)CO.Cc1nnc(NS(=O)(=O)c2ccc(/N=N/c3cc(/N=N/c4ccc(S(=O)(=O)Nc5nnc(C)s5)cc4)c4c(NC(=O)C(Cl)Cl)cccc4c3OC(=O)C(Cl)Cl)cc2)s1
[1]
  GI50: 25.6 µM (inactive)
[2]
  GI50: 30.1 µM (inactive)
[3]
  GI50: 11.6 µM (inactive)
[5]
  GI50: 81.5 µM (inactive)
[6]
  GI50: 1.08 µM (active)
[7]
  GI50: 12.1 µM (inactive)
[8]
  GI50: 16.1 µM (inactive)
[9]
  GI50: 18.7 µM (inactive)
[10]
  GI50: 11.7 µM (inactive)
[11]
  GI50: 34.4 µM (inactive)
[12]
  GI50: 21.3 µM (inactive)
[13]
  GI50: 15 µM (inactive)
[14]
  GI50: 35.5 µM
[15]
  GI50: 9.95 µM (inactive)
[17]
  GI50: 88.5 µM (inactive)
[18]
  GI50: 51.6 µM (inactive)
[57]
  GI50: 8.85 µM (inactive)
[19]
  GI50: 24.5 µM (inactive)
[20]
  GI50: 22.9 µM (inactive)
[21]
  GI50: 31.3 µM (inactive)
[22]
  GI50: 23.6 µM (inactive)
[23]
  GI50: 33.3 µM (inactive)
[24]
  GI50: 31.9 µM (inactive)
[25]
  GI50: 28.4 µM (inactive)
[26]
  GI50: 18.5 µM (inactive)
[27]
  GI50: 5.53 µM (inactive)
[28]
  GI50: 26.5 µM (inactive)
[30]
  GI50: 12.1 µM (inactive)
[31]
  GI50: 21.5 µM (inactive)
[32]
  GI50: 21.6 µM (inactive)
[33]
  GI50: 19.2 µM (inactive)
[34]
  GI50: 22.6 µM (inactive)
[35]
  GI50: 27.9 µM (inactive)
[36]
  GI50: 11.6 µM (inactive)
[58]
  GI50: < 0.01 µM (active)
[37]
  GI50: 21.2 µM (inactive)
[59]
  GI50: 34.6 µM (inactive)
[38]
  GI50: 24 µM (inactive)
[39]
  GI50: 42.3 µM (inactive)
[40]
  GI50: 18.9 µM (inactive)
[41]
  GI50: 20.8 µM (inactive)
[42]
  GI50: 21.2 µM (inactive)
[43]
  GI50: 22.4 µM (inactive)
[45]
  GI50: 3.3 µM (inactive)
[46]
  GI50: 48.5 µM (inactive)
[47]
  GI50: 37.3 µM (inactive)
[48]
  GI50: > 100 µM (inactive)
[50]
  GI50: 22.6 µM (inactive)
[51]
  GI50: 43.3 µM (inactive)
[52]
  GI50: 37.1 µM (inactive)
[53]
  GI50: 38.5 µM (inactive)
[54]
  GI50: 33 µM (inactive)
[55]
  GI50: 46.7 µM (inactive)
[56]
  GI50: 25.8 µM (inactive)
